The record followed here is PMC9218685, “Legume Plant Peptides as Sources of Novel Antimicrobial Molecules Against Human Pathogens” (Frontiers in Molecular Biosciences, 2022).

Values after ≈ are worked out from the molar mass of the structure shown. Ends that are not written are not given here. Peptide text beside a SMILES is read from it.

In test [1] the test system is Acinetobacter baumannii (ATCC 17978). Briefly: microbe, parasite or virus in culture. Type of test: cell-based. The conditions noted are these: for Activity against A. baumannii: 3 h, peptides ≤25 µM; for MBC Acinetobacter baumannii: ATCC 17978, 3 h. From the text: (§1) The following pathogenic bacterial strains were used: The Gram-positive Enterococcus faecalis (ATCC 29212), Staphylococcus aureus (HNCMO112011), Listeria monocytogenes (ATCC 19111) and the Gram-negative Pseudomonas aeruginosa (ATCC 27853), Escherichia coli (ATCC 8739), Salmonella enterica (ATCC 13076), Klebsiella pneumoniae (NCTC 13440), Acinetobacter baumannii (ATCC 17978) obtained from the ATCC (United States) and NCTC (National Collection of Type Cultures–England). For the antifungal experiment the Candida albicans W01 strain ([Ördögh et al., 2014]) was used. Antimicrobial activities of peptides against ∼10^7 log phase bacteria were tested in Potassium-Phosphate Buffer (PPB, pH 7.4) as described by [Jenei et al. (2020)] while anti-Candida assays were done according to [Szerencsés et al. (2021)]. The two-fold dilution series of peptides ranged from 25 μM to 0.125 μM, while that of the antibiotics ampicillin (Merck) and miconazole (Duchefa Biochemie) from […] to 0.1 μM. The lowest concentration of the antimicrobial agents, which completely eliminated viable bacteria or C. albicans were considered as the minimal bactericidal concentration (MBC) and minimal fungicidal concentration (MFC).
(§2) The minimal bactericidal concentrations (MBCs) were determined after 3 h of treatment of ∼10^7 log phase bacteria with 2-fold serial dilution of peptides from 25 µM to 0.8 µM. Only 25 of the 50 cationic M. truncatula peptides had activity at ≤25 µM (Supplementary Table S1). […] Three peptides were only active against two bacterial strains; NCR649 against L. monocytogenes and A. baumannii, NCR281 against L. monocytogenes and P. aeruginosa and NCR350 against A. baumannii and P. aeruginosa. […] None of the anionic NCR peptides affected the survival of the tested bacterial strains.

Test [2] deals with Pseudomonas aeruginosa (ATCC 27853). It is filed as cell-based. The following applies: for MBC Pseudomonas aeruginosa: ATCC 27853, 3 h.
Source text: as §1, §2

`CC1(C)S[C@@H]2[C@H](NC(=O)[C@H](N)c3ccccc3)C(=O)N2[C@H]1C(=O)O` [Ampicillin, reference compound]: the MBC in test [1] (Acinetobacter baumannii, ATCC17978, ~10^7 log phase bacteria, Potassium-Phosphate Buffer pH 7.4, 3 h treatment, two-fold dilution series, lowest concentration completely eliminating viable bacteria, read-out: MBC, minimal bactericidal concentration against A. baumannii) came to 10200 µM (≈ 3580 µg/mL). Regarding `CC[C@H](C)[C@H](NC(=O)[C@H](Cc1ccc(O)cc1)NC(=O)[C@H](CC(N)=O)NC(=O)[C@H](CCCNC(=N)N)NC(=O)[C@@H](NC(=O)[C@H](CCC(N)=O)NC(=O)[C@H](CCCNC(=N)N)NC(=O)[C@H](CS)NC(=O)[C@H](CC(=O)O)NC(=O)[C@H](CCCCN)NC(=O)[C@H](CC(N)=O)NC(=O)[C@@H](NC(=O)[C@@H](NC(=O)[C@H](CS)NC(=O)[C@H](CC(N)=O)NC(=O)[C@H](CCCNC(=N)N)NC(=O)[C@H](CO)NC(=O)[C@@H](NC(=O)[C@@H]1CCCN1C(=O)[C@H](CC(C)C)NC(=O)[C@@H](N)Cc1ccccc1)[C@@H](C)O)[C@@H](C)CC)[C@@H](C)O)C(C)C)C(=O)N[C@@H](C)C(=O)N[C@@H](CCCNC(=N)N)C(=O)N[C@@H](CS)C(=O)N[C@@H](CCCNC(=N)N)C(=O)N[C@@H](CCCCN)C(=O)NCC(=O)N[C@@H](CCC(N)=O)C(=O)N[C@@H](CS)C(=O)N[C@@H](CC(C)C)C(=O)N[C@@H](CCC(N)=O)C(=O)N[C@@H](CO)C(=O)N1CCC[C@H]1C(=O)N[C@H](C(=O)N[C@@H](CCCNC(=N)N)C(=O)O)C(C)C` [NCR030] (H-FLPTSRNCITNKDCRQVRNYIARCRKGQCLQSPVR-OH; N-terminus assumed), the “Activity against A. baumannii” value in test [1] (~10^7 log phase bacteria) was “only against A. baumannii”. The “MBC Acinetobacter baumannii” value in test [1] is 3.125 µM (≈ 12.9 µg/mL). With `CC[C@H](C)[C@H](NC(=O)[C@H](Cc1ccccc1)NC(=O)[C@@H](NC(=O)[C@H](CCCCN)NC(=O)[C@H](CC(=O)O)NC(=O)[C@@H]1CCCN1C(=O)[C@@H](N)Cc1ccccc1)[C@@H](C)CC)C(=O)NCC(=O)N[C@@H](CC(=O)O)C(=O)N[C@@H](CS)C(=O)N[C@@H](CCCCN)C(=O)N[C@H](C(=O)N[C@@H](CC(=O)O)C(=O)N[C@@H](CCCCN)C(=O)N[C@@H](CC(=O)O)C(=O)N[C@@H](CS)C(=O)N[C@@H](CCCCN)C(=O)N1CCC[C@H]1C(=O)N[C@@H](CCCCN)C(=O)N[C@@H](CCCNC(=N)N)C(=O)NCC(=O)N[C@H](C(=O)N[C@@H](CC(N)=O)C(=O)N[C@@H](Cc1ccccc1)C(=O)N[C@@H](CCCNC(=N)N)C(=O)N[C@@H](CS)C(=O)N[C@@H](CCCNC(=N)N)C(=O)N[C@@H](CCCCN)C(=O)NCC(=O)N[C@@H](CCCCN)C(=O)N[C@@H](CS)C(=O)N[C@@H](Cc1ccc(O)cc1)C(=O)N1CCC[C@H]1C(=O)N[C@@H](CCCNC(=N)N)C(=O)O)C(C)C)[C@@H](C)O` [NCR032] (H-FPDKIFIGDCKTDKDCKPKRGVNFRCRKGKCYPR-OH; N-terminus assumed), in test [1] (~10^7 log phase bacteria), the “Activity against A. baumannii” value was “only against A. baumannii”. Further, in test [1], the “MBC Acinetobacter baumannii” value is given as 3.125 µM (≈ 12.6 µg/mL). `CC[C@H](C)[C@H](NC(=O)[C@H](Cc1ccc(O)cc1)NC(=O)[C@H](CC(N)=O)NC(=O)[C@H](CCCCN)NC(=O)[C@@H](NC(=O)[C@H](CO)NC(=O)[C@@H]1CCCN1C(=O)[C@H](CS)NC(=O)[C@H](CC(=O)O)NC(=O)[C@H](CCCCN)NC(=O)[C@H](CC(=O)O)NC(=O)[C@@H](NC(=O)[C@@H](NC(=O)[C@H](CS)NC(=O)[C@@H](NC(=O)[C@H](CCCNC(=N)N)NC(=O)[C@@H](NC(=O)[C@@H](NC(=O)[C@@H]1CCCN1C(=O)[C@H](CC(C)C)NC(=O)[C@H](Cc1ccc(O)cc1)NC(=O)[C@@H](N)[C@@H](C)O)[C@@H](C)O)[C@@H](C)O)[C@@H](C)CC)[C@@H](C)CC)[C@@H](C)O)C(C)C)C(=O)NCC(=O)N[C@@H](CCCNC(=N)N)C(=O)N[C@@H](CS)C(=O)N[C@@H](CCCNC(=N)N)C(=O)N[C@@H](CCCCN)C(=O)NCC(=O)N[C@@H](Cc1ccc(O)cc1)C(=O)N[C@@H](CS)C(=O)N[C@@H](CCC(N)=O)C(=O)N[C@@H](C)C(=O)N[C@@H](CO)C(=O)N[C@@H](CCCCN)C(=O)N[C@@H](CC(C)C)C(=O)N[C@@H](CCCNC(=N)N)C(=O)O` [NCR042] (H-TYLPTTRICITDKDCPSVKNYIGRCRKGYCQASKLR-OH; N-terminus assumed): the “MBC Pseudomonas aeruginosa” value in test [2] came out at 25 µM (≈ 104 µg/mL).

Consider `CC[C@H](C)[C@H](NC(=O)[C@H](CC(N)=O)NC(=O)[C@H](Cc1c[nH]cn1)NC(=O)[C@@H]1CCCN1C(=O)[C@@H]1CCCN1C(=O)[C@H](CCSC)NC(=O)[C@H](CCCNC(=N)N)NC(=O)[C@@H]1CCCN1C(=O)[C@H](CS)NC(=O)[C@H](CC(=O)O)NC(=O)[C@H](CCCCN)NC(=O)[C@H](CC(=O)O)NC(=O)[C@@H](NC(=O)[C@H](CC(C)C)NC(=O)[C@H](CS)NC(=O)[C@@H]1CCCN1C(=O)[C@H](CCCNC(=N)N)NC(=O)[C@H](CC(C)C)NC(=O)[C@@H](NC(=O)[C@H](CCSC)NC(=O)CNC(=O)[C@@H](N)Cc1ccccc1)[C@@H](C)O)[C@@H](C)O)C(=O)N[C@@H](CCCCN)C(=O)N[C@@H](CS)C(=O)N[C@@H](CCCNC(=N)N)C(=O)N[C@@H](CCCCN)C(=O)NCC(=O)N[C@@H](Cc1c[nH]cn1)C(=O)N[C@@H](CS)C(=O)N[C@H](C(=O)N1CCC[C@H]1C(=O)N[C@H](C(=O)NCC(=O)N[C@@H](CCCCN)C(=O)N1CCC[C@H]1C(=O)N[C@@H](Cc1ccccc1)C(=O)N[C@@H](CCCCN)C(=O)O)[C@@H](C)CC)C(C)C` [NCR137] (H-FGMTLRPCLTDKDCPRMPPHNIKCRKGHCVPIGKPFK-OH; N-terminus assumed), for which, in test [1], the “MBC Acinetobacter baumannii” value was 25 µM (≈ 106 µg/mL). As to `CC[C@H](C)[C@H](NC(=O)[C@H](CC(N)=O)NC(=O)[C@H](Cc1ccc(O)cc1)NC(=O)[C@H](CCC(N)=O)NC(=O)[C@H](CO)NC(=O)[C@@H](NC(=O)[C@H](CCCCN)NC(=O)[C@@H]1CCCN1C(=O)[C@H](CS)NC(=O)[C@H](CC(=O)O)NC(=O)[C@H](CCCCN)NC(=O)[C@H](CC(=O)O)NC(=O)[C@@H](NC(=O)[C@@H](NC(=O)[C@H](CS)NC(=O)[C@@H]1CCCN1C(=O)CNC(=O)[C@H](CO)NC(=O)[C@H](CC(N)=O)NC(=O)[C@@H](NC(=O)[C@H](Cc1ccc(O)cc1)NC(=O)[C@@H]1CCCN1C(=O)[C@@H](NC(=O)[C@H](CO)NC(=O)[C@H](CC(=O)O)NC(=O)[C@H](Cc1ccc(O)cc1)NC(=O)[C@@H](NC(=O)[C@@H](N)CO)C(C)C)[C@@H](C)CC)C(C)C)C(C)C)[C@@H](C)O)C(C)C)C(=O)N[C@@H](CCCNC(=N)N)C(=O)N[C@@H](CS)C(=O)N[C@@H](CCCNC(=N)N)C(=O)N[C@@H](CCCCN)C(=O)NCC(=O)N[C@@H](CCC(N)=O)C(=O)N[C@@H](CS)C(=O)N[C@@H](C)C(=O)N[C@@H](CCCNC(=N)N)C(=O)N[C@H](C(=O)N[C@@H](CCCNC(=N)N)C(=O)N[C@H](C(=O)O)C(C)C)[C@@H](C)CC` [NCR361] (H-SVYDSIPYVNSGPCVTDKDCPKVSQYNIRCRKGQCARIRV-OH; N-terminus assumed), in test [2], the “MBC Pseudomonas aeruginosa” value was found to be 25 µM (≈ 113 µg/mL). On to “VYDSKYFQIASPCVNDKDCPQFKNNNVRCRRGFCVNSGGATQKCLGCPSLK-OH (cysteines drawn unpaired) [NCR350]”, for which the “Activity against P. aeruginosa” value in test [2] (3 h, ~10^7 log phase bacteria, peptides ≤25 µM) is “active”. In addition, the “MBC Pseudomonas aeruginosa” value in test [2] was 25 µM. Also, the “Activity against A. baumannii” value in test [1] (~10^7 log phase bacteria) is on record as “active”. Moreover, the “MBC Acinetobacter baumannii” value in test [1] stood at 12.5 µM.
